Consider eleven molecules from US20230142090A1 (priority 2020, published 2023).

“Also recorded” adds a separate entry of the source. Where two headings read alike, the source gives them in different places.

The subject of assay [1] is Salmonella SPI1 expression (sicA-GFP). Details: species or system C57BL/6 mice. The note with it: mouse, in vivo.
Assay [2] relates to Salmonella. The class given is cell-based.
Assay [3] deals with HEp-2 cell invasion by Salmonella. Type of assay: cell-based.
Assay [4] addresses HilD (Salmonella typhimurium, UniProt P0CL08). Type of assay: cell-based.
For assay [5], the system named is toxin co-regulated pili gene (tcpA). The class given is cell-based, Vibrio cholerae.
Assay [6] relates to RtsA. Type of assay: binding, Salmonella.
In assay [7] the test system is hilA expression. The class given is cell-based.
The target of assay [8] is T1, HilD (Salmonella typhimurium, UniProt P0CL08).
T1 construct: 6×His-NusA (followed by HRV 3C protease site) (N, cleaved yes); made in house; host or cells: E. coli BL21(DE3)
T1 sequence (P0CL08 1-309): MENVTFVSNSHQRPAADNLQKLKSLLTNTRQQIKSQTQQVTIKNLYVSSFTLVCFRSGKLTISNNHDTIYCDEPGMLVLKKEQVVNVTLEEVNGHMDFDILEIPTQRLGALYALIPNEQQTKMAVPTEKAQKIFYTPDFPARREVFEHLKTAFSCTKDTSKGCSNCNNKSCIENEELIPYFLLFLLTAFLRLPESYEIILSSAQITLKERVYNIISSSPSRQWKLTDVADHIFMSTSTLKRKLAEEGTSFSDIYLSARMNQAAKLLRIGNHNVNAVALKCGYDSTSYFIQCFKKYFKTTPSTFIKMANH
The class given is binding.

The subject of assay [9] is sopB expression. The class given is cell-based.
Assay [10] addresses T2, HilC (Salmonella typhimurium, UniProt P0CL09).
T2 sequence (P0CL09 1-295): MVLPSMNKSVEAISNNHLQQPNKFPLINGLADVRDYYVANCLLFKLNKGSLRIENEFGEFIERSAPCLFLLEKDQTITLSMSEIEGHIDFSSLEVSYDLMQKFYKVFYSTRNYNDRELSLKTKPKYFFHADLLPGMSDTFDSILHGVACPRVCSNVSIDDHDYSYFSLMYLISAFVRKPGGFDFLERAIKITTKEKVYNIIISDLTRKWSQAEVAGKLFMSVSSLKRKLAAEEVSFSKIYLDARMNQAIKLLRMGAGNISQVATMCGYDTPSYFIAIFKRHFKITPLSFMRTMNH
The class given is binding.

The subject of assay [11] is cholera toxin genes ctxAB. The class given is cell-based, Vibrio cholerae C6706 EI Tor strain.
The test system of assay [12] is cholera toxin. The class given is cell-based, V. cholerae Haiti and N16961.
[13] abbreviates: hilC and rtsA deleted, hilD under tetracycline-inducible promoter, 20 μM (FIG. 4C).

As to `CCCCCCCCCCCCC/C=C\C(=O)O` [c2-HDA, (Z)-hexadec-2-enoic acid], the “reduction of the percentage of bacteria expressing SPI1 in the caecum” value in assay [1] was 2 fold. Moreover, in assay [2], the “effect on bacterial growth” value is reported as “did not impair bacterial growth”. In addition, in [3], the “decrease of invasion of HEp-2 cells compared to untreated cultures” value is 78%. Besides, the “effect on HilD stability in the absence of Lon” value in assay [4] is “no effect on its stability”. Besides, the “expression of tcpA” value in assay [5] was “represses expression”. In [6], the “binding of RtsA to the hilA promoter” value is “preventing binding; also recorded: partially inhibited binding; also recorded: prevented binding; also recorded: did so partially”. Also, in [7], the “inhibition of hilA expression” value was determined as 39%, the “less potent in repressing hilA compared to the wild type” value was determined as 39%, the “reduction of hilA expression in the presence of only hilC” value came to 20 fold and the “reduction of hilA expression in the presence of only rtsA” value worked out at 13 fold. In addition, in assay [7], the “reduction of hilA expression, chain length comparison” value (“reduction … chain length comparison” for short) turned out to be 159 fold; the “repression of hilA expression in the absence of Lon” value is “continued to repress hilA expression”; the “repression of hilA in the presence of hilD only” value (“repression … of hilD only” for short) stood at 78 fold. Further, the “binding of HilD to the hilA promoter” value in assay [8] is “prevented the binding; also recorded: partially inhibited binding; also recorded: completely inhibited; also recorded: did so partially”. Further, in assay [9], the “inhibition of sopB expression in Δlon and ΔhilE mutants” value is on record as “inhibited sopB expression in these mutants to the level observed in the wild type strain”; the “repression of sopB” value is on record as 11 fold; the “repression of sopB expression” value is listed as 68 fold. Also, the “binding of HilC to the hilA promoter” value in assay [10] was “preventing binding; also recorded: partially inhibited binding; also recorded: prevented binding; also recorded: did so partially”. In [11], the “concentrations at which effects on virulence gene expression were apparent” value is no less than 5 µM, the “repression of ctxAB” value is on record as 20 fold and the “repression of virulence gene expression compared to Virstatin” value is on record as “repressed much more efficiently”. Moreover, the “cholera toxin secretion / toxin amounts in the culture media” value in [12] is “reduced; also recorded: reduces cholera toxin secretion”.
With `CCCCCCC/C=C\C(=O)O` [cis-2-decenoic acid, (Z)-dec-2-enoic acid], the “reduction … chain length comparison” value in assay [7] (FIG. 1F) was determined as 28%.
On to `CCCCCCCCC/C=C\C(=O)O` [cis-2-dodecenoic acid, (Z)-dodec-2-enoic acid], for which the “potency in repressing invasion genes relative to c2-HDA” value in assay [7] is “less potent in repressing invasion genes than c2-HDA”. The “reduction … chain length comparison” value in assay [7] (FIG. 1F) came out at 3 fold.
Take `CCCCCCCCCCCCCCCCC/C=C\C(=O)OC` [cis-2-eicosenoic acid methyl ester]: the “repression of hilA expression by methyl ester” value in assay [7] is on record as “not to significantly repress hilA expression”.
As for `CCCCCCCCCCCCCCCCC/C=C\C(=O)O` [cis-2-eicosenoic acid, (Z)-icos-2-enoic acid], in assay [7] (FIG. 1F), the “reduction … chain length comparison” value was determined as 10 fold. The “repression … of hilD only” value in assay [7] (setting [13]) amounted to 3 fold.
With `CCCCCCCCCCCCC/C=C\C(=O)OC` [cis-2-hexadecenoic acid methyl ester], in assay [7], the “repression of hilA expression by methyl ester” value is given as “not to significantly repress hilA expression”.
Take `CC(C)CCCCCCC/C=C\C(=O)O` [cis-11-methyl-2-dodecenoic acid]: the “potency in repressing invasion genes relative to c2-HDA” value in [7] is listed as “less potent in repressing invasion genes than c2-HDA”.
Consider `CCCCCCCC/C=C\CCCCCCCC(=O)O` [oleic acid, cis-9-octadecenoic acid, reference compound], for which, in [3] (overnight growth with 20 μM compound), the “decrease of invasion of HEp-2 cells compared to untreated cultures” value was found to be 70%. Moreover, the “repression of hilA expression” value in assay [7] (5 μM, hilA::luxCDABE, wild type (FIG. 1A)) came out at 1.3 fold. Further, the “repression … of hilD only” value in [7] (setting [13]) is given as 1.2 fold. Further, in assay [11], the “repression of ctxAB” value is listed as 1.3 fold.
Take `CCCCCCCCCCCCCCCC(=O)O` [palmitic acid, reference compound]: in assay [11], the “repression of ctxAB” value is on record as “no repressive effects”.
Regarding `CCCCCCCCCCCCC/C=C/C(=O)O` [trans-2-hexadecenoic acid, reference compound], the “fold less potent in repressing hilA than the cis-isomer” value in assay [7] (20 μM fatty acids (FIG. 1A)) came to 31 fold.
On to `O=C(O)CCCN1C(=O)c2cccc3cccc(c23)C1=O` [virstatin, reference compound], for which the “repression of ctxAB” value in assay [11] was 1.2 fold.
